The values below come from patent US10730885B1, “Coumarin derivatives” (KING SAUD UNIVERSITY, priority 2019, dated 2020).

The subject of series [1] is Saccharomyces cerevisiae (local isolate). The experiment in a line: Agar well diffusion, primary antimicrobial screening. The class given is cell-based. To be noted: for zone of inhibition at 10000 µg/mL: Saccharomyces cerevisiae, 24 h, read-out: Inhibition Diameter Zone SC; for antimicrobial activity compared with ketoconazole: S. cerevisiae. From the text:
(§1) The newly synthesized compounds were individually tested for their in vitro antimicrobial activity against the standard bacteria strains of American Type Culture Collection (ATCC), namely, Staphylococcus aureus ATCC 29213, Bacillus subtilis ATCC 6633, Bacillus megaterium ATCC 9885 (Gram-positive), Escherichia coli ATCC 2592 and Pseudomonas aeruginosa ATCC 27953 (Gram-negative). In addition, they were microbiologically tested against the locally isolated Saccharomyces cerevisiae (yeast) and the standard strain of Agricultural Research Service Culture Collection (NRRL) of the yeast like pathogenic fungus Candida albicans NRRL Y-477. The primary screening was carried out using the agar well diffusion method using nutrient agar (NA) medium and Sabourand dextrose agar (SDA) medium for pathological tested bacteria and yeast, respectively.
(§2) Antimicrobial tests were carried out by the agar well diffusion method using 100 μL of suspension containing 1×10^8 CFU/mL of pathological tested bacteria and 1×10^6 CFU/ml of yeast spread on NA and SDA, respectively. After the media was cooled and solidified, wells (10 mm in diameter) were made in the solidified agar and loaded with 100 μL of tested compound solution prepared by dissolving 10 mg of the chemical compound in one ml of dimethyl sulfoxide (DMSO). The inculcated plates were then incubated for 24 h at 37° C. for bacteria and yeast. Negative controls were prepared using DMSO employed for dissolving the tested compound. Ciprofloxacin (10 mg/ml) and ketoconazole (10 mg/ml) were used as standard for antibacterial and antifungal activity, respectively. After incubation time, antimicrobial activity was evaluated by measuring the zone of inhibition against the test organisms and compared with that of the standard. Antimicrobial activities were expressed as inhibition diameter zones in millimeters (mm). The experiment was carried out in triplicate and the average zone of inhibition was calculated.

Series [2] relates to Candida albicans NRRL Y-477. The series is described as above. To be noted: for zone of inhibition at 10000 µg/mL: Candida albicans, NRRLY477, C. albicans NRRL Y-477, 100 μL of 10 mg/ml in DMSO, 24 h, read-out: Inhibition Diameter Zone CA; for antifungal activity compared with reference drug: C. albicans. The class given is cell-based.
Text: as §1, §2

Series [3] has as its system Pseudomonas aeruginosa ATCC 27953. The description is as above. It counts as cell-based. To be noted: for zone of inhibition at 10000 µg/mL: Pseudomonas aeruginosa, ATCC27953, P. aeruginosa ATCC 27953, 100 μL of 10 mg/ml in DMSO, 24 h, read-out: Inhibition Diameter Zone PA.
Text: as §1, §2

Series [4] concerns Bacillus megaterium ATCC 9885. Described as above. It counts as cell-based. To be noted: for zone of inhibition at 10000 µg/mL: Priestia megaterium, ATCC9885, B. megaterium ATCC 9885, 100 μL of 10 mg/ml in DMSO, 24 h, read-out: Inhibition Diameter Zone BM; for antibacterial activity compared with ciprofloxacin: B. megaterium.
Text: as §1, §2

Series [5] relates to Escherichia coli ATCC 2592. The series is described as above. It counts as cell-based. To be noted: for zone of inhibition at 10000 µg/mL: Escherichia coli, ATCC2592, E. coli ATCC 2592, 100 μL of 10 mg/ml in DMSO, 24 h, read-out: Inhibition Diameter Zone EC; for antibacterial activity compared with ciprofloxacin: E. coli.
Text: as §1, §2

The test system of series [6] is Bacillus subtilis ATCC 6633. The series is described as above. The class given is cell-based. Particulars: for zone of inhibition at 10000 µg/mL: Bacillus subtilis, ATCC6633, B. subtilis ATCC 6633, 100 μL of 10 mg/ml in DMSO, 24 h, read-out: Inhibition Diameter Zone BS; for antibacterial activity compared with reference drug: B. subtilis.
Text: as §1, §2

The next series has as its system trypsin. The series can be described thus: Proteinase inhibitory activity (trypsin/casein). It counts as biochemical. Particulars: for % Inhibition of proteinase activity: 250 μg/ml, mean ± SD (n = 3). The method, then: For proteinase inhibitory activity, the reaction mixture (2 ml) contained 0.06 mg trypsin, 20 mM Tris HCl buffer (pH 7.4) and 1 ml test sample (250 μg/ml for each compound). The mixture was incubated for 5 min and then 1 ml of 0.8% (w/v) casein was added. The mixture was incubated for an additional 20 min. 1 ml of 10% perchloric acid was added to arrest the reaction. The cloudy suspension was centrifuged, and the absorbance of the supernatant was read at 280 nm. Reference standard compound aspirin was used as the positive control for this assay. The experiment was performed in triplicate. Percentage inhibition of […] was calculated by using the following formula:
[formula] where Acontrol is the absorbance of the control reaction and Atest is the absorbance of the control reaction with sample.

The nature of series [7]: DPPH microplate radical scavenging antioxidant assay. Particulars: for IC50: DPPH, 30 min, mean ± SD (n = 3). The class given is biochemical. As to the method:
The antioxidant activity of the synthesized compounds was measured in terms of hydrogen-donating or radical scavenging ability using the DPPH microplate-based method. Absorbance measurement was obtained using Microplate/cuvette reader (Spectramax M5, Molecular Devices, California, USA). Reference standard compound ascorbic acid was used as the positive control for this assay at concentrations ranging from 1.563 to 200 μg/mL. Test samples were prepared at a starting concentration of 200 μg/mL after mixing with 100 μl of 0.2 mM DPPH methanolic solution. A series of concentrations were tested for the samples in order to determine the 50% inhibitory concentration (IC50). Samples were incubated with DPPH in the dark for 30 min at room temperature (25° C.). The DPPH solution in methanol was prepared daily and stored in a flask covered with aluminum foil. DPPH radicals have an absorption maximum (λmax) at 515 nm, in which the absorbance values were measured and converted into percentage of antioxidant activity.
Methanolic DPPH solution without antioxidant was applied as control and background control was samples in methanol only. IC50 was determined using Graphpad Prism 7 (Graphpad Software Inc. CA, USA). The percentage inhibition was calculated by using the formula:
The assay was carried out in triplicate and performed as much as possible in an area protected against light. The data points are presented as the mean±standard deviation (SD) (n=3).

The subject of a further series is tested microorganisms. The experiment in a line: Agar well diffusion, summary over the tested microorganisms. To be noted: for antimicrobial activity compared with standard antimicrobials (ciprofloxacin and ketoconazole): against one or more microorganisms. The class given is cell-based.
Text: as §1, §2
In general terms: Agar diffusion results depend on both activity and mobility in agar.

Series [8] concerns Staphylococcus aureus ATCC 29213. The series can be described thus: Agar well diffusion, primary antimicrobial screening. It counts as cell-based. Particulars: for antibacterial activity compared with ciprofloxacin: S. aureus.
Text: as §1, §2

Where [9] appears, read: S. cerevisiae local isolate, 100 μL of 10 mg/ml in DMSO.

Converted amounts (≈) assume the structure as drawn. Like-named read-outs stand apart in the source and are kept apart here. Bounds are passed on as bounds.

What is called melting point is the temperature of the solid-liquid transition. The term IC50 denotes the concentration needed to halve the response being measured. Read a low IC50 as higher potency.

Compound `Cc1ccc2oc(=O)c3c(c2c1)OC(N=CN(C)C)=C(C#N)C3c1ccc([N+](=O)[O-])cc1` (racemic) [Compound 7a, (±)-N′-(3-cyano-9-methyl-4-(4-nitrophenyl)-5-oxo-4H,5H-pyrano[3,2-c]chromen-2-yl)-N,N-dimethylformimidamide] had a melting point of 279 to 281 °C. For the same compound, the zone of inhibition at 10000 µg/mL in series [1] was < 15 mm. Moreover, in series [2], the zone of inhibition at 10000 µg/mL is < 15 mm. The zone of inhibition at 10000 µg/mL in [3] was < 15 mm. Also, the zone of inhibition at 10000 µg/mL in series [4] was < 15 mm. Besides, the zone of inhibition at 10000 µg/mL in [5] was < 15 mm. In addition, the zone of inhibition at 10000 µg/mL in [6] is < 15 mm. Further, the “% Inhibition of proteinase activity” value in the series with trypsin worked out at 31.99 ± 2.45%. For the same compound, the IC50 entry in [7] is “— ((—): inactive (IC50 > 200 μg/mL))”.

Consider `O=c1oc2ccc(Cl)cc2c(O)c1S(=O)(=O)Nc1ccc(S(=O)(=O)Nc2ncccn2)cc1` [Compound 10c, 6-Chloro-4-hydroxy-2-oxo-N-(4-(N-(pyrimidin-2-yl)sulfamoyl)phenyl)-2H-chromene-3-sulfonamide], for which the melting point is 230 to 232 °C. In addition, the “antimicrobial activity compared with standard antimicrobials (ciprofloxacin and ketoconazole)” value in the series with tested microorganisms is “equal to or higher than the standard antimicrobials”. Besides, the “antimicrobial activity compared with ketoconazole” value in [1] was “higher than that of the corresponding control drug”. In addition, the zone of inhibition at 10000 µg/mL in series [1] (setting [9]) came out at 31 mm. For the same compound, the “antibacterial activity compared with ciprofloxacin” value in series [8] is “higher than the control ciprofloxacin”. Also, the “antibacterial activity compared with ciprofloxacin” value in series [4] was “comparable to ciprofloxacin”. Moreover, in [5], the “antibacterial activity compared with ciprofloxacin” value is reported as “comparable antibacterial potential”. In addition, the “antibacterial activity compared with reference drug” value in series [6] is listed as “higher than the reference drug”. In series [7], the IC50 came out at 120.12 ± 4.629 µg/mL (≈ 236 µM).

As for `Cc1ccc2oc(=O)c(S(=O)(=O)Nc3ccc(S(=O)(=O)Nc4ncccn4)cc3)c(O)c2c1` [Compound 10d, 4-hydroxy-6-methyl-2-oxo-N-(4-(N-(pyrimidin-2-yl)sulfamoyl)phenyl)-2H-chromene-3-sulfonamide], the melting point is 207 to 209 °C. Besides, in the series on tested microorganisms, the “antimicrobial spectrum” value is on record as “broad-spectrum activity against all of the tested microorganisms”; the “antimicrobial activity compared with standard antimicrobials (ciprofloxacin and ketoconazole)” value is “equal to or higher than the standard antimicrobials”. In series [1], the “antimicrobial activity compared with ketoconazole” value is given as “higher than that of the corresponding control drug”. Moreover, in series [1] (setting [9]), the zone of inhibition at 10000 µg/mL worked out at 32 mm. In addition, the “antifungal activity compared with reference drug” value in [2] was “higher antifungal activity”. Moreover, in [8], the “antibacterial activity compared with ciprofloxacin” value is recorded as “higher than the control ciprofloxacin”. For the same compound, the “antibacterial activity compared with ciprofloxacin” value in series [4] was “comparable to ciprofloxacin”. Besides, the “antibacterial activity compared with reference drug” value in [6] is “higher than the reference drug”. For the same compound, the “% Inhibition of proteinase activity” value with trypsin is on record as 36.84 ± 4.87%. In addition, the IC50 in [7] came out at 112.19 ± 4.391 µg/mL (≈ 230 µM).

The compound `Cc1ccc2oc(=O)c(S(=O)(=O)Nc3ccc(O)cc3)c(O)c2c1` [Compound 11d, 4-Hydroxy-N-(4-hydroxyphenyl)-6-methyl-2-oxo-2H-chromene-3-sulfonamide] displayed a melting point of 253 to 254 °C. Also, the “antimicrobial activity compared with standard antimicrobials (ciprofloxacin and ketoconazole)” value in the series on tested microorganisms was “equal to or higher than the standard antimicrobials”. The “antimicrobial activity compared with ketoconazole” value in series [1] is listed as “higher than that of the corresponding control drug”. Besides, the zone of inhibition at 10000 µg/mL in series [1] (setting [9]) was determined as 32 mm. Besides, in [2], the “antifungal activity compared with reference drug” value was “higher antifungal activity”. Moreover, the “antibacterial activity compared with ciprofloxacin” value in series [8] is recorded as “higher than the control ciprofloxacin”. For the same compound, the “antibacterial activity compared with standard” value in [3] (P. aeruginosa) is recorded as “higher than that of the standard drugs”. For the same compound, the “antibacterial activity compared with ciprofloxacin” value in [5] is reported as “higher antibacterial activity than ciprofloxacin”. Besides, the “antibacterial activity compared with reference drug” value in series [6] is given as “comparable antibacterial activities to the standard”. The “% Inhibition of proteinase activity” value with trypsin is given as 20.15 ± 7.31%. For the same compound, the 50% inhibitory concentration (IC50) in series [7] is 4.30 ± 0.531 µg/mL (≈ 12.4 µM). Further, the “antioxidant activity” value in series [7] (overview) is “particularly high antioxidant activity”.

For the compound `CC(=O)c1ccc(NS(=O)(=O)c2c(O)c3cc(C)ccc3oc2=O)cc1` [Compound 11f, N-(4-acetylphenyl)-4-hydroxy-6-methyl-2-oxo-2H-chromene-3-sulfonamide], the melting point lay within 231 to 232 °C. Also, the zone of inhibition at 10000 µg/mL in series [1] (setting [9]) was < 15 mm. The zone of inhibition at 10000 µg/mL in series [2] is < 15 mm. The zone of inhibition at 10000 µg/mL in series [3] is < 15 mm. In [5], the zone of inhibition at 10000 µg/mL is < 15 mm. Further, the “% Inhibition of proteinase activity” value in the series with trypsin is recorded as 2.0 ± 1.4%. The same compound had an IC50 in [7] of 35.36 ± 3.265 µg/mL (≈ 94.7 µM).

In the case of `O=C(/C=C/c1ccc([N+](=O)[O-])cc1)c1ccc(NS(=O)(=O)c2c(O)c3cc(Cl)ccc3oc2=O)cc1` [Compound 12a, (E)-6-chloro-4-hydroxy-N-(4-(3-(4-nitrophenyl)acryloyl)phenyl)-2-oxo-2H-chromene-3-sulfonamide], the melting point was 205 to 207 °C. Also, in [1] (setting [9]), the zone of inhibition at 10000 µg/mL is < 15 mm. For the same compound, the zone of inhibition at 10000 µg/mL in [2] was < 15 mm. In addition, the zone of inhibition at 10000 µg/mL in [3] was < 15 mm. Besides, the zone of inhibition at 10000 µg/mL in series [5] is < 15 mm. Also, in the series on trypsin, the “in vitro anti-proteinase activity compared with aspirin” value is “more potent” and the “% Inhibition of proteinase activity” value amounted to 62.14±4.87%. Besides, the IC50 entry in series [7] is “— ((—): inactive (IC50 > 200 μg/mL))”.

For the compound `CC(=O)N1CCN(c2ccc(OCC3COC(Cn4ccnc4)(c4ccc(Cl)cc4Cl)O3)cc2)CC1` (stereo not shown) [Ketoconazole, ketoconazole, reference compound], the zone of inhibition at 10000 µg/mL is < 15 mm in series [8] (Staphylococcus aureus, ATCC29213, S. aureus ATCC 29213, 100 μL of 10 mg/ml in DMSO, 24 h, read-out: Inhibition Diameter Zone SA); < 15 mm in [3]; < 15 mm in series [4]; < 15 mm in series [5]; < 15 mm in [6].
